Patent US10604739B2, “Cardiomyocyte production” (Cellular Dynamics International, Inc., priority 2009, dated 2020)
Several values for one entry are separate records, joined by “and”; a condition that tells them apart may be missing. Equal values may be shown once.

Experiments:
Format in all cases: cell-based, human
[1] = system: iPS6.1 cells; experiment: iPS6.1 Four Corners experiment, FGF x HGF cardiac induction
Protocol: (§1) Aggregate formation and cardiac induction procedures of those iPS cells at different initial densities were performed essentially the same as described in Examples 4 except different concentrations of human HGF (hHGF) and FGF were applied to Aggregate Formation Medium, Aggregate Transition Medium and Cardiac Induction Medium.
Concurrent with the second iPS growth factor titration, a simple experiment (Table 19) was set up with iPS6.1 cells to test the 2×2 matrix of 0 and 25 ng/mL FGF and 0 and 50 ng/mL HGF. The positive concentrations of FGF and HGF were chosen based on the current best practices for iPS6.1 cells at the time and were identical to the conditions used for cardiac induction of H1 cells in both the plated and suspension processes. This experiment confirmed previous work showing the necessity of FGF for the process.

[2] = system: iPS6.1 and H9-TGZ cells; experiment: Meta-analysis of paired conditions with and without 50 ng/mL HGF
Protocol: A meta-analysis across these experiments was performed to assess whether the inventors could detect any measurable benefit of including HGF in the induction medium. This analysis reviewed all the available experiments for paired conditions with and without 50 ng/mL HGF. […] This left 14 paired conditions (11 performed in triplicate within an experiment). To aid in this analysis, a process raw material cost model was employed to estimate the cost per million cardiomyocytes under each condition. This model used the most up-to-date raw material cost and process information available at the time (˜Jun. 1, 2009).

[3] = system: iPS6.1-MRB cells; experiment: iPS-MRB 1 L spinner qualification runs with and without HGF; settings: for CM/L (millions) / Purity (% RFP+): +HGF, 1 L spinner flask
Protocol: IPS-MRB cells were maintained on Matrigel™ in TeSR medium (from Stem Cell Technologies) no later than when they would normally be ready to be passaged. IPS cells were grown in T-150 flasks throughout this example, but can be scaled for starting cells in other culture formats. Five T-150 flasks of iPS cells were harvested: media were aspirated and cells were incubated with 12 mL room temperature TrypLe™ (Invitrogen), a recombinant typsin-like enzyme, at 37° C. for 7 minutes. The cells were then transferred to five 50 ml conical tubes (one tube for each T-150 flask) containing 12 ml DMEM/F12 (GIBCO) with 10% fetal calf serum (FCS) (Chemicon). The cells were then pelleted at 1200 rpm for 5 minutes and supernatant aspirated. The pellet was resuspended in 10 mL aggregate promotion medium (TeSR medium containing 25 μg/ml Gentamicin, 1 μM H1152, and with or without 50 ng/ml human recombinant HGF). The resuspended pellet were combined into a single 250 ml conical tube (allowing volume for later dilution), if necessary. Cells were counted using CEDEX HiRES cell counter and then diluted to 1.0×10^6 cells/mL. Each 500 mL diluted cell stock was dispensed into one 1 L spinner flask (leaving room in spinner flasks for later dilution) and the flasks were placed on magnetic stir platform with a speed of 50 RPM (both side caps were loosed by two full turns to allow gas transfer).
On the next day (Day 1), flasks containing the cells were set in cell culture hood and suspended aggregate allowed to settle to the bottom of the flasks for 30 minutes. The spent media were aspirated using a 2 mL aspirating pipet with approximately 100 mL left in the flasks (if films of cells form on bottom after setting, shake flask back and forth in each direction to break them up before adding medium). Aggregate transition medium (50% TeSR medium, 45% DMEM containing GlutaMax™, 5% ES-qualified FCS, 25 μg/ml Gentamicin, 1 μM H1152, and with or without 50 ng/ml HGF) were added to the flasks using Pipeline machine to bring to the original volume. The flasks were returned to the stirring platform inside a 7% CO2 incubator and the agitator was started to operate at 50±1 RPM (both side caps were loosed by two full turns to allow gas transfer).
On Day 2, flasks containing the cells were set in cell culture hood and suspended aggregate allowed to settle to the bottom of the flasks for 15 minutes. The spent media were aspirated with approximately 100 mL left in the flasks. Aggregate suspension were gently mixed in flasks, and cardiac induction medium (90% TeSR medim, 10% ES-qualified FCS, 25 μg/ml Gentamicin, 50 ng/ml human recombinant bFGF, and with or without 50 ng/ml human recombinant HGF) were added to each flask to 1 L (2× dilution) with Pipeline machine. The flasks were returned to the stirring platform inside a 7% CO2 incubator and the agitator was started to operate at 50±1 RPM (both side caps were loosed by two full turns to allow gas transfer).
On Day 3, flasks containing the cells were set in cell culture hood and suspended aggregate allowed to settle to the bottom of the flasks for 15 minutes. The spent media were aspirated with approximately 100 mL left in the flasks. Spinner flasks were shaken back and forth to break large clumps. Cardiac induction medium were added back to each flask to bring back to the original volume for Days 3-7; cardiac maintenance medium were exchanged instead for Days 8, 10, 12. After every media exchange, the flasks were returned to the stirring platform inside a 7% CO2 incubator and the agitator was started to operate at 50±1 RPM (both side caps were loosed by two full turns to allow gas transfer).
Cell cultures were analyzed on Day 14 by total cell counting per flask at harvest, cTNT or RFP purity at harvest. Aggregate count was also carried on Day 2 and final stage and aggregate pictures were taken.
Three qualification runs were performed to confirm at large scale and with iPS6.1-MRB cells that removal of HGF has no measurable effect. […]

[4] = system: iPS6.1 cells; experiment: iPS6.1 Growth Factor Titration #2; settings: HGF 0, 20, 50 ng/mL, best performing FGF concentration conditions
Protocol: as §1
Based on the results of the first experiment (see FIGS. 29A-B), the second iPS6.1 growth factor titration focused on the lower dose range for both FGF and HGF (FIGS. 30A-B). […] However, it is important to note that in no case did the omission of HGF lead to the failure of a condition which was otherwise successful in the presence of HGF.

[5] = First iPS 4-corners, head-to-head pairings with purity >1%
[6] = First iPS GF matrix, head-to-head pairings with purity >1%
[7] = H9-TGZ Matrix #2, head-to-head pairings with purity >1%
[8] = H9-TGZ Matrix #2 repeat, head-to-head pairings with purity >1%
[9] = HGF Conc 50 ng/mL, 14 paired conditions
[10] = Second iPS GF matrix, head-to-head pairings with purity >1%
[11] = Total of all experiments, head-to-head pairings with purity >1%

## HGF: human recombinant HGF (hepatic growth factor), R&D systems
[1]; iPS6.1 cells, 25 ng/mL FGF and/or 50 ng/mL HGF, single T25 flask, day 14
  input iPS:CM: 6725
[1]; iPS6.1 cells, 25 ng/mL FGF and/or 50 ng/mL HGF, single T25 flask, day 14, listed as HGF only
  % cTNT+: 0% and 1.5% and 7%
[1]; inclusion of HGF (50 ng/mL) together with FGF (25 ng/mL) versus FGF alone
  Overall culture efficiency: reduced overall culture efficiency
[2]; [5]
  Fraction with better CM/L @ 50 ng/mL HGF than 0: 0/1
  Fraction with better iPS:CM ratio @ 50 ng/mL HGF than 0: 0/1
[2]; [6]
  Fraction with better CM/L @ 50 ng/mL HGF than 0: 3/4
  Fraction with better iPS:CM ratio @ 50 ng/mL HGF than 0: 3/4
[2]; [7]
  Fraction with better CM/L @ 50 ng/mL HGF than 0: 2/4
  Fraction with better iPS:CM ratio @ 50 ng/mL HGF than 0: 2/4
[2]; [8]
  Fraction with better CM/L @ 50 ng/mL HGF than 0: 0/1
  Fraction with better iPS:CM ratio @ 50 ng/mL HGF than 0: 0/1
[2]; [9]
  CM/L, Average: 49
  CM/L, Best: 140
  CM/L, Worst: 1.5
  iPS:CM, Average: 100
  iPS:CM, Best: 7
  iPS:CM, Worst: 712
[2]; [10]
  Fraction with better CM/L @ 50 ng/mL HGF than 0: 2/4
  Fraction with better iPS:CM ratio @ 50 ng/mL HGF than 0: 2/4
[2]; [11]
  Fraction with better CM/L @ 50 ng/mL HGF than 0: 7/14
  Fraction with better iPS:CM ratio @ 50 ng/mL HGF than 0: 7/14
[2]; with vs without 50 ng/mL HGF, 14 paired conditions
  Effect of HGF in cardiomyocyte production process (on average): no measurable positive or negative effect
[3]; "normal" run, 1 L spinner
  Effect of HGF addition on yields: no effect
[3]; Run #1 (Jun. 6, 2009)
  CM/L (millions): 48.9 millions
  Purity (% RFP+): 6.6%
[3]; Run #2 (Jun. 10, 2009)
  CM/L (millions): 17.5 millions
  Purity (% RFP+): 3.7%
[3]; Run #3 (Jun. 14, 2009)
  CM/L (millions): 10.0 millions
  Purity (% RFP+): 2.6%
[4]
  Trend of productivity with HGF concentration: productivity increased with higher HGF concentrations
